In ChEMBL document CHEMBL5360552, “Potential RNA-dependent RNA polymerase (RdRp) inhibitors as prospective drug candidates for SARS-CoV-2” (Eur J Med Chem, 2023):

Experiments:
SARS-CoV-2 [1] = experiment: Antiviral activity against SARS-CoV-2 infected in african green monkey Vero E6 cells pretreated for 1 hrs followed by viral infection for 2 days post treatment by qRT-PCR; format: functional, organism-based, Severe acute respiratory syndrome coronavirus 2
SARS-CoV-2 [2] = experiment: Antiviral activity against SARS-CoV-2 infected in human Calu-3 cells pretreated for 1 hrs followed by viral infection for 2 days post treatment by qRT-PCR; format: functional, organism-based; settings: Severe acute respiratory syndrome coronavirus 2, Calu-3
[3] = Cytotoxicity against african green monkey Vero E6 cells assessed as inhibition of cell growth incubated for 4 days by MTS assay; format: toxicity, cell-based, Vero C1008; settings: chlorocebus sabaeus, time 4 day
[4] = Cytotoxicity against human Calu-3 cells assessed as inhibition of cell growth incubated for 4 days by MTS assay; format: toxicity, cell-based; settings: time 4 day
SARS-CoV-2 [5] = experiment: Antiviral activity against SARS-CoV-2 infected in african green monkey Vero E6 cells assessed as reduction in viral yield at 20 uM incubated for 48 hrs post infection by qRT-PCR relative to control; format: functional, Severe acute respiratory syndrome coronavirus 2; parameters: scale not given: the % may be the effect or the level left
[6] = biological target: Replicase polyprotein 1ab (Severe acute respiratory syndrome coronavirus 2) (UniProt P0DTD1); experiment: Inhibition of SARS-CoV-2 RdRp transfected in HEK293T cells at 10 microM incubated for 24 hrs by Gluc-Activity assay relative to control; format: cell-based
[7] = Cytotoxicity against HEK293T cells assessed as cell growth inhibition incubated for 24 hrs by CCK-8 assay; format: toxicity, cell-based, HEK-293T; settings: human
[8] = Therapeutic index, ratio of CC50 for HEK293T cells to EC50 for inhibition of SARS-CoV-2 RdRp; format: toxicity; settings: human, read-out: TI
SARS-CoV-2 [9] = experiment: Antiviral activity against SARS-CoV-2 WA1/2020 infected in human Calu-3 cells preincubated for 2 hrs followed by viral infection and measured after 48 hrs by microscopy analysis; format: functional, organism-based; settings: Severe acute respiratory syndrome coronavirus 2, WA1/2020, Calu-3
SARS-CoV-2 [10] = experiment: Antiviral activity against SARS-CoV-2 WA1/2020 infected in human Caco-2 cells preincubated for 24 hrs followed by viral infection and measured after 3 day post infection by viral yield reduction assay; format: functional; settings: Severe acute respiratory syndrome coronavirus 2, WA1/2020, Caco-2, 96 h; time 4 day
SARS-CoV-2 [11] = experiment: Antiviral activity against SARS-CoV-2 WA1/2020 infected in african green monkey Vero 76 cells preincubated for 24 hrs followed by viral infection and measured after 3 day post infection by viral yield reduction assay; format: functional; settings: Severe acute respiratory syndrome coronavirus 2, WA1/2020, Vero 76, 96 h; time 4 day
SARS-CoV-2 [12] = experiment: Antiviral activity against SARS-CoV-2 WA1/2020 infected in african green monkey Vero E6 cells preincubated for 24 hrs followed by viral infection and measured after 5 day post infection by cytopathic effect assay; format: functional; settings: Severe acute respiratory syndrome coronavirus 2, WA1/2020, Vero C1008, 144 h; time 6 day
[13] = Cytotoxicity against human Caco-2 cells assessed as cell growth inhibition by neutral red cytopathic assay; format: toxicity, cell-based
[14] = Cytotoxicity against african green monkey Vero 76 cells assessed as cell growth inhibition by neutral red cytopathic assay; format: toxicity, cell-based; settings: chlorocebus sabaeus
[15] = Cytotoxicity against human Calu-3 cells assessed as cell growth inhibition by neutral red cytopathic assay; format: toxicity, cell-based
[16] = Selectivity index, ratio of CC50 for human Caco-2 cells to EC90 for SARS-CoV-2 infected in human Caco-2 cells; format: toxicity, cell-based; settings: read-out: Selectivity Index
[17] = Selectivity index, ratio of CC50 for african green monkey Vero 76 cells to EC90 for SARS-CoV-2 infected in African Green monkey Vero 76 cells; format: toxicity, cell-based; settings: read-out: Selectivity Index
[18] = Selectivity index, ratio of CC50 for human Calu-3 cells to EC90 for SARS-CoV-2 infected in human Calu-3 cells; format: toxicity, cell-based; settings: read-out: Selectivity Index
[19] = Selectivity index, ratio of CC50 for african green monkey Vero 76 cells to EC90 for SARS-CoV-2 infected in African Green monkey Vero 76 cells assessed as reduction in cytopathic effect; format: toxicity, cell-based; settings: read-out: Selectivity Index
SARS-CoV-2 [20] = experiment: Antiviral activity against SARS-CoV-2 infected in african green monkey Vero E6 cells assessed as reduction in viral replication; format: functional, organism-based; settings: Severe acute respiratory syndrome coronavirus 2, Vero C1008
SARS-CoV-2 [21] = experiment: Antiviral activity against wild type SARS-CoV-2 infected in human Calu-3 cells of organoid assessed as intracellular viral RNA level measured after 48 hrs by qRT-PCR analysis; format: functional, organism-based; settings: Severe acute respiratory syndrome coronavirus 2, Calu-3, 48 h
[22] = Cytotoxicity against african green monkey Vero E6 cells assessed as inhibition of cell growth by CCK-8 assay; format: toxicity, cell-based, Vero C1008; settings: chlorocebus sabaeus
SARS-CoV-2 [23] = experiment: Antiviral activity against SARS-CoV-2 infected in human Calu-3 cells assessed as reduction in viral yield incubated for 48 hrs by RT-PCR; format: functional, organism-based; settings: Severe acute respiratory syndrome coronavirus 2, Calu-3, 48 h
[24] = Cytotoxicity against human Calu-3 cells assessed as cell growth inhibition incubated for 4 hrs by XTT assay; format: toxicity, cell-based
in vitro = settings: human, Calu-3 cells
Description: Selectivity index, ratio of CC50 for human Calu-3 cells to EC50 for SARS-CoV-2 infected in human Calu-3

[25] = Selectivity index, ratio of CC50 for african green monkey Vero E6 cells to EC50 for SARS-CoV-2 infected in African Green monkey Vero E6 cells; format: toxicity, cell-based, Vero C1008; settings: read-out: Selectivity Index

`O=C(O)[C@H]1O[C@@H](Oc2cc3oc(-c4ccccc4)cc(=O)c3c(O)c2O)[C@H](O)[C@@H](O)[C@@H]1O` [BAICALIN] gave an EC50 (SARS-CoV-2 [1]; Severe acute respiratory syndrome coronavirus 2, Vero C1008) of 9 µM, an EC50 (SARS-CoV-2 [2]) of 8 µM and a CC50 at 96 h [3] of over 100 µM. The CC50 at 96 h [4] was over 100 µM and the Activity (SARS-CoV-2 [5]) was 98%.

For `CC(C)(C)OC(=O)N[C@@H]1CCN(c2ccc3cccc(OCC(=O)NCc4ccccc4)c3n2)C1`, the inhibition [6] was 74.9%, the CC50 at 24 h [7] was 79.4 µM and the selectivity ratio [8] was 20.3.

In the case of `Nc1ncnc2c([C@@H]3N[C@H](CO)[C@@H](O)[C@H]3O)c[nH]c12`, the EC50 (SARS-CoV-2 [9]) is reported as 14.2 µM, the EC90 (SARS-CoV-2 [10]) is reported as 14.2 µM and the EC90 (SARS-CoV-2 [11]) is reported as 10.9 µM. It also gave an EC90 (SARS-CoV-2 [12]) of 50.3 µM, a CC50 [13] of 82.8 µM and a CC50 [14] of over 296 µM. For the same compound, the CC50 [15] was over 50 µM, the selectivity ratio [16] was 5.8 and the selectivity ratio [17] was over 27. It also gave a selectivity ratio [18] of over 3.5 and a selectivity ratio [19] of 5.8.

In the case of `COc1ccc(-c2cc(=O)c3c(O)cc(O)c(-c4cc(-c5cc(=O)c6c(O)cc(O)cc6o5)ccc4OC)c3o2)cc1` [ISOGINKGETIN], the IC50 (SARS-CoV-2 [20]) is reported as 22.8 µM.

For `CC(C)C(=O)OC[C@H]1O[C@@H](n2cc/c(=N\O)[nH]c2=O)[C@H](O)[C@@H]1O` [MOLNUPIRAVIR], the IC50 (SARS-CoV-2 [21]) was 1.97 µM.

For `Cc1cccc(C)c1OCC(=O)N[C@@H](Cc1ccccc1)[C@@H](O)C[C@H](Cc1ccccc1)NC(=O)[C@H](C(C)C)N1CCCNC1=O` [LOPINAVIR], the IC50 (SARS-CoV-2 [20]) was 11.5 µM.

For `O=c1cc(-c2ccccc2)oc2cc(O)c(O)c(O)c12` [BAICALEIN], the EC90 (SARS-CoV-2 [1]; Severe acute respiratory syndrome coronavirus 2, Vero C1008, 48 h, time 2 day) was 7.6 µM, the EC50 (SARS-CoV-2 [2]) was 1.2 µM and the CC50 at 96 h [3] was 8.6 µM. The CC50 at 96 h [4] was 91 µM and the Activity (SARS-CoV-2 [5]) was 99.8%.

With `CC(C)(C)OC(=O)N[C@H]1CCN(c2ccc3cccc(OCC(=O)NCc4ccccc4)c3n2)C1` the inhibition [6] was 92.8%, the CC50 at 24 h [7] was 72.4 µM and the selectivity ratio [8] was 34.8.

For `CCC(CC)COC(=O)[C@H](C)N[P@](=O)(OC[C@H]1O[C@@](C#N)(c2ccc3c(N)ncnn23)[C@H](O)[C@@H]1O)Oc1ccccc1`, the CC50 [22] was over 100 µM and the IC50 (SARS-CoV-2 [20]) was 7.18 µM.

In the case of `NC(=O)c1ncn([C@@H]2O[C@H](CO)[C@@H](O)[C@H]2O)n1` [RIBAVIRIN], the EC50 (SARS-CoV-2 [23]) is reported as 7.1 µM, the CC50 at 4 h [24] is reported as 160 µM and the selectivity ratio (in vitro) is reported as 16.

With `COC(=O)N[C@H](C(=O)N1CCC[C@H]1c1ncc(-c2ccc(-c3ccc(-c4cnc([C@@H]5CCCN5C(=O)[C@@H](NC(=O)OC)C(C)C)[nH]4)cc3)cc2)[nH]1)C(C)C` the EC50 (SARS-CoV-2 [23]) was 1.1 µM and the CC50 at 4 h [24] was 38 µM.

Compound `CC(C)(C)OC(=O)N1CCN(c2ccc3cccc(OCC(=O)NCc4ccccc4)c3n2)CC1` has an inhibition [6] of 95%, a CC50 at 24 h [7] of 70.8 µM and a selectivity ratio [8] of 65.5.

`CC(C)OC(=O)[C@H](C)N[P@](=O)(OC[C@H]1O[C@@H](n2ccc(=O)[nH]c2=O)[C@](C)(F)[C@@H]1O)Oc1ccccc1` [SOFOSBUVIR] gave an EC50 (SARS-CoV-2 [23]) of 7.3 µM and a CC50 at 4 h [24] of 512 µM.

With `CCN(CC)CCCC(C)Nc1ccnc2cc(Cl)ccc12` (stereo not given) [CHLOROQUINE] the IC50 (SARS-CoV-2 [20]) was 11.6 µM.

`NC(=O)c1nc(F)c[nH]c1=O` gave a CC50 [22] of over 400 µM and a selectivity ratio [25] of 6.46.
